Test results published in a melting point compilation (Tetko et al.; mined from patent text by program, amines drawn as free bases though some values may be those of a salt).

First: O=c1c(Oc2ccc(-c3ccncc3)cc2)c(-n2ccnc2)cnn1-c1ccc(Cl)cc1
Second: CS(=O)(=O)c1ccc(-c2oc(C(=O)O)cc(=O)c2Oc2ccc(Cl)cc2)cc1
The melting point of the first is lower: 188 °C for the first, 263 °C for the second.

Compared with `Cc1cnc(-c2c(F)cccc2F)nn1`, `CC1C(c2ncc(Cl)cc2F)=NN(C)CS1=S` (centres undefined) is higher in melting point: 90 to 93 °C for the first, 107 to 112 °C for the second.

First: O=C(O)c1ccc(C2=NCCS2)nc1
Second: CC(C)OC(=N)c1sc2ccccc2c1O
The melting point of the first is higher: 234 to 235 °C for the first, 208 °C for the second.

First: CCCc1nc2c(N)nc3cc(OCc4cscn4)ccc3c2s1
Second: COc1ccc2occ(CCN3CCN(c4cc(Cl)cc5cccnc45)CC3)c2c1
The melting point of the first is higher: 218 to 220 °C for the first, 72 °C for the second.

First: COc1ccc2c(c1)N=C(NCc1cccnc1)c1ccccc1N2
Second: Cc1cc(OC(=O)c2ccccc2)ccc1OCc1ccccc1
The melting point of the first is higher: 160 to 161 °C for the first, 118 to 119 °C for the second.

Compared with `O=C(Cc1ccc([N+](=O)[O-])cc1)CN1C(=O)c2ccccc2C1=O`, `O=C(Cn1c(-c2ccc(Br)cc2)nc2cccnc21)Nc1ccccc1Cl` is higher in melting point: 184 °C for the first, 230 to 232 °C for the second.

Compared with `COc1ccc(Cn2c(N)c(C#N)c3c2CCCC3)cc1`, `COc1ccc(COc2ccc(C(=O)Nc3ccc4cc(CN5CCCC5)cnc4c3C)cc2)cc1` is higher in melting point: 122 to 126 °C for the first, 192 to 193 °C for the second.

First: C#CCN1C(=O)C(C)(C)NC(C)(C)C1=O
Second: CCC1(CC)c2ccccc2C(CC)(CC)N1OC(C)(C)C#N
The melting point of the first is higher: 77 to 80 °C for the first, 63 to 64 °C for the second.

Compared with `NC(=O)N1C(=O)/C(=C(\O)c2cccs2)c2cc(F)c(Cl)cc21`, `O=C(NC(=O)c1c(Cl)cccc1Cl)Nc1cc(-c2ccc(-c3ccccc3)cc2)on1` is lower in melting point: 239 to 241 °C for the first, 225 to 227 °C for the second.

First: CC(C)(C)OC(=O)N1CCC(OCc2ccccc2)C1CC(=O)Cn1cnc2ccc(F)c(F)c2c1=O (centres undefined)
Second: Cc1cc(F)ccc1-c1ccc(S(=O)(=O)N2c3ccccc3CC2C(=O)NCCOc2ccc(C(=O)O)c(F)c2)cc1 (centres undefined)
The melting point of the first is higher: 211 °C for the first, 109 to 118 °C for the second.

Compared with `C=C(C)Cn1nc(C(=O)c2cccc(O)c2)c2ccccc21`, `C=C(C)C(=O)Nc1cccc2c(O)cccc12` is higher in melting point: 75 to 78 °C for the first, 223 to 224 °C for the second.

First: CCOCC(O)(c1cccnc1)C(C)c1ccc(Cl)cc1Cl (centres undefined)
Second: COc1cccc2c1Oc1cc(Cl)ccc1C2
The melting point of the first is lower: 86 °C for the first, 106 to 108 °C for the second.

First: COc1ccc(CNc2cc[nH]n2)cc1OC1CCCC1
Second: COc1ccc(C2=NN(c3ccccc3)C(=O)[C@H]3CCCC[C@@H]23)cc1OC (relative stereo)
The melting point of the first is lower: 106 to 110 °C for the first, 122 to 124 °C for the second.

Compared with `O=C1Nc2ccc(Cl)cc2C1(Cl)c1cccc2c1OCO2` (centres undefined), `C=Cc1cccc(C(OS(=O)(=O)c2ccc(Cl)cc2)(C(F)(F)F)C(F)(F)F)c1` is lower in melting point: 241 °C for the first, 70 °C for the second.

First: CC(C)(c1ccc(O)cc1)c1ccc(O)c(C(=O)Oc2ccccc2)c1
Second: O=C(c1ccc(-c2ccccc2)cc1)N1Cc2ccccc2Oc2ccccc21
The melting point of the first is higher: 140 °C for the first, 93 to 95 °C for the second.

Compared with `OC(CCN1CC=C(c2ccc(Cl)cc2)CC1)c1ccc(F)cc1` (centres undefined), `Cc1ccc(-c2ccc(C(=O)Nc3ccc4cc(CN5CCCC5)cnc4c3C)cc2F)cc1` is higher in melting point: 130 to 132 °C for the first, 193 to 194 °C for the second.

First: C=CCNC(=O)N1CC(c2ccc(C(C)(C)C)cc2)C1
Second: COC(=O)C1CCCN1S(=O)(=O)c1ccc(C)cc1 (racemic)
The melting point of the first is higher: 98 to 99 °C for the first, 93 °C for the second.

First: COc1nc(N)nc2c1ncn2/C=C1\CC1(CO)CO
Second: CCCCCC=Cc1cccc2c(=O)[nH]c(-c3cc(S(=O)(=O)N4CCOCC4)ccc3OCCC)nc12
The melting point of the first is higher: 179 to 180 °C for the first, 112 °C for the second.

First: COc1ccc(-c2cc(C(O)C(F)(F)F)[nH]c2-c2ccc(OC)cc2)cc1 (centres undefined)
Second: COc1cc(CN2CCN(C(=S)C3(C)CCc4c(C)c(O)c(C)c(C)c4O3)CC2)cc(OC)c1OC (centres undefined)
The melting point of the first is higher: 84 to 86 °C for the first, 82 °C for the second.

`CC12C=CCC1C1CC=C3CC(O)CCC3(CO)C1CC2` (centres undefined) gave a melting point of 169 to 171 °C.
